# Test results as given in patent publication US6548448B2, “Delivery systems for cyclopropenes” (Rohm and Haas Company, priority 2001, dated 2003).
# Tests used:
# Type in all cases: physicochemical
# [1] = 1-MCP release from waxy, cast (Parafilm M) film containing 1-MCP/α-cyclodextrin complex in humid chamber; conditions: for Concentration of 1-MCP: waxy cast Parafilm M film with 0.5 g complex, 36 liter high humidity chamber
# Procedure: Parafilm® “M” film (2.0 grams, American National Can Corp.) was dissolved/dispersed in 12 grams of hexane. 1-MCP/α-cyclodextrin complex powder (0.5 grams) was mixed into this suspension and then the whole mixture was poured into a 3.5 inch diameter glass crystallizing dish to dry. The dish was placed in a 50° C. oven for 5 hrs. to dry and the resulting cast film was removed from the dish. This film was placed into a 36 liter volume high humidity chamber being careful not to allow the film to contact any water directly. The 1-MCP release characteristics of the film versus time were determined by periodically analyzing the atmosphere in the chamber for 1-MCP. The analysis method was gas chromatography using a flame ionization detector.
# [2] = 1-MCP release from low density polyethylene (LDPE) film containing 1-MCP/α-cyclodextrin complex in humid chamber; conditions: for Concentration of 1-MCP: LDPE film with 0.05 g complex, 36 liter high humidity chamber
# Procedure: 1-MCP/α-CD complex powder (0.05 grams) was heat sealed into a 5.5×12 inch piece of 2.0 mil thick low density polyethylene (LDPE) film. This film was placed into a 36 liter volume high humidity chamber. […] The 1-MCP release characteristics of the film versus time were determined by periodically analyzing the atmosphere in the chamber for 1-MCP. The analysis method was gas chromatography using a flame ionization detector.
# [3] = 1-MCP release from wax paper exposed to 1-MCP gas, sealed jar; conditions: for Concentration of 1-MCP: wax paper exposed to 2206 ppm 1-MCP for 5 hours, sealed quart jar
# Procedure: Wax paper measuring 4.5×2.75 inches was exposed to 2206 ppm 1-MCP (vol/vol) in the atmosphere of a sealed quart jar for 5 hours. The film was removed, allowed to stand in air for 5 minutes and then sealed in a fresh quart jar equipped with a sampling septum. The 1-MCP release characteristics of the film versus time were determined by periodically analyzing the atmosphere in the jar for 1-MCP. The analysis method was gas chromatography using a flame ionization detector.
# [4] = 1-MCP release from polyvinyl alcohol (PVA) film containing 1-MCP/α-cyclodextrin complex in humid chamber; conditions: for Concentration of 1-MCP: PVA film with 0.05 g complex, 36 liter high humidity chamber
# Procedure: 1-MCP/α-cyclodextrin complex powder (0.05 grams) was heat sealed into a 2×3.5 inch piece of 1.5 mil thick M 7061 polyvinyl alcohol (PVA) film (Chris Craft Corp.) using a Sealmaster 420 (Audion Elektro) heat sealer. This film was placed into a 36 liter volume high humidity chamber. […] The 1-MCP release characteristics of the film versus time were determined by periodically analyzing the atmosphere in the chamber for 1-MCP. The analysis method was gas chromatography using a flame ionization detector.
# [5] = 1-MCP release from high density polyethylene (HDPE) film exposed to 1-MCP gas, sealed jar; conditions: for Concentration of 1-MCP: HDPE film exposed to 2206 ppm 1-MCP for 2 hours, sealed quart jar
# Procedure: High density polyethylene (HDPE) film of 2 mil thickness measuring 4.5×2.75 inches was exposed to 2206 ppm 1-MCP (vol/vol) in the atmosphere of a sealed quart jar for 2 hours. The film was removed, allowed to stand in air for 5 minutes and then sealed in a fresh quart jar equipped with a sampling septum. The 1-MCP release characteristics of the film versus time were determined by periodically analyzing the atmosphere in the jar for 1-MCP. The analysis method was gas chromatography using a flame ionization detector.
structure (smiles),measurement,setting,value
"CC1=CC1 [Compound 1-MCP, 1-methylcyclopropene]",Concentration of 1-MCP,[1]; 0 min.,0.0 ppm
same,Concentration of 1-MCP,[1]; 5 min.,0.02 ppm
same,Concentration of 1-MCP,[1]; 20 min.,0.1 ppm
same,Concentration of 1-MCP,[1]; 35 min.,0.3 ppm
same,Concentration of 1-MCP,[1]; 60 min.,0.8 ppm
same,Concentration of 1-MCP,[1]; 90 min.,1.4 ppm
same,1-MCP release from the film (in words),"[1]; waxy cast film, high humidity chamber, no direct water contact",released from the LDPE film just by the water provided by humidity
same,Concentration of 1-MCP,[2]; 0 min.,0.0 ppm
same,Concentration of 1-MCP,[2]; 5 min.,2.0 ppm
same,Concentration of 1-MCP,[2]; 20 min.,7.7 ppm
same,Concentration of 1-MCP,[2]; 40 min.,14.5 ppm
same,Concentration of 1-MCP,[2]; 60 min.,19.0 ppm
same,1-MCP release from the film (in words),"[2]; LDPE film, high humidity chamber, no direct water contact",released from the LDPE film just by the water provided by humidity
same,Concentration of 1-MCP,[3]; 0 min.,0.0 ppm
same,Concentration of 1-MCP,[3]; 0.5 min.,0.3 ppm
same,Concentration of 1-MCP,[3]; 5 min.,0.9 ppm
same,Concentration of 1-MCP,[3]; 15 min.,0.9 ppm
same,Concentration of 1-MCP,[3]; 60 min.,0.9 ppm
same,1-MCP release from the film (in words),"[3]; wax paper, sealed jar","less release than Example 4, but still a significant amount"
same,Concentration of 1-MCP,[4]; 0 min.,0.0 ppm
same,Concentration of 1-MCP,[4]; 5 min.,0.9 ppm
same,Concentration of 1-MCP,[4]; 25 min.,2.2 ppm
same,Concentration of 1-MCP,[4]; 45 min.,3.2 ppm
same,Concentration of 1-MCP,[4]; 90 min.,6.0 ppm
same,Concentration of 1-MCP,[4]; 20 hr.,17.0 ppm
same,1-MCP release from the film (in words),"[4]; PVA film, high humidity chamber, no direct water contact",released from the PVA film just by the water provided by humidity
same,Concentration of 1-MCP,[5]; 0 sec.,0.0 ppm
same,Concentration of 1-MCP,[5]; 0.5 min.,3.0 ppm
same,Concentration of 1-MCP,[5]; 5 min.,8.0 ppm
same,Concentration of 1-MCP,[5]; 15 min.,9.6 ppm
same,Concentration of 1-MCP,[5]; 60 min.,11.0 ppm
same,1-MCP release from the film (in words),"[5]; HDPE film, sealed jar",significant release
